In PubChem BioAssay AID1625 (Sanford-Burnham Center for Chemical Genomics, 2009):
Calls of active or inactive are those of the source.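 Rule for the calls: active = z-score above 3 at 5 µM with at least 500 cells counted in the well; inconclusive = wells under 500 cells, flagged as cytotoxic or low count; inactive = the rest.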

Tested on: MIN6 insulin promoter-GFP reporter, high-content imaging
Experiment: insulin promoter activators in MIN6 cells, imaging, high-content screening, mouse beta cells (AID 1625)

Structure (SMILES)	EC50
COc1ccc(N=C2NC(=O)S/C2=C\c2ccc(N(C)C)cc2)cc1	> 16 µM (inactive)
CC(=O)c1c(C)[nH]c(-c2ccccc2)nc1=S	9.08 µM
CCCCN1C(=O)/C(=C/C=C2\SCCN2C)SC1=S	9.18 µM
COCCCNc1c2c3c(cccc3[nH]c1=O)C(=O)c1ccccc1-2	4.03 µM
C=CCSc1nnc(C)c(/C=C/Nc2ccc(Cl)cc2)n1	> 16 µM (inactive)
CCN(CC)c1ccc2cc(-c3nc4ccccc4[nH]3)c(=O)oc2c1	0.281 µM
Nc1c(C(=O)N/N=C/c2cccnc2)oc2nc(-c3ccco3)cc(-c3ccco3)c12	> 16 µM (inactive)
CCN1/C(=C/C=C/c2oc3ccc4ccccc4c3[n+]2CC)Oc2ccc3ccccc3c21	< 0.25 µM
Cc1cc(N2CCCC2)ccc1/C=C1/C(=O)N(C)C(=S)N1C	> 16 µM (inactive)
CC(=O)Nc1sc(/C(C#N)=C/c2ccc(Cl)c(Cl)c2)nc1-c1ccc(C)cc1	> 16 µM (inactive)
N#CC1=C(N)C(C#N)(C#N)[C@H](c2ccoc2)[C@H]2CN(Cc3ccccc3)CC=C12	9.87 µM
N#CC(C#N)=C1C=C2C=C(N3CCOCC3)CCC2CC1 (centres undefined)	2.56 µM
CCN(CC)c1ccc(C=C(c2nnnn2-c2ccccc2)c2nnnn2-c2ccccc2)cc1	> 16 µM (inactive)
N#C/C(=C\c1ccc(N2CCCCC2)o1)C(=O)Nc1cccc(Br)c1	0.605 µM
O=[N+]([O-])c1ccc(C2=NN(c3ccccc3)C(c3ccco3)C2)cc1 (centres undefined)	9.19 µM
N#C/C(=C/c1ccc(N2CCCCC2)o1)C(=O)NCCc1c[nH]c2ccccc12	5.17 µM
Cc1ccc(Nc2nc(Cl)c(C=O)s2)cc1Cl	> 16 µM (inactive)

Structure (SMILES)	EC50
CCCCN(C)C1=CC2=CC(=C(C#N)C#N)CCC2CC1 (centres undefined)	< 0.25 µM
C/C(=N\Nc1ccc([N+](=O)[O-])cc1)c1cc2ccccc2o1	> 16 µM (inactive)
CCCN1C(=O)/C(=C\C=C2\N(CC)c3ccccc3C2(C)C)SC1=S	> 16 µM (inactive)
Cc1cccn2c(=O)c(/C=C3\SC(=S)NC3=O)c(NCCCN3CCOCC3)nc12	12.2 µM (inactive)
COc1cc([C@@H]2[C@H]3CNCC=C3C(C#N)=C(N)C2(C#N)C#N)ccc1OC(C)C	> 16 µM (inactive)
CN1/C(=C\C=C(/C#N)C(=O)Nc2ccccc2F)C(C)(C)c2ccccc21	> 16 µM (inactive)
COc1cccc2sc(NNC(=O)C3=COCCO3)nc12	> 16 µM (inactive)
CCCOc1cc(N(CC)CC)ccc1/C=C(/C#N)c1nc2ccc(C)cc2[nH]1	9.89 µM
CCOC(=O)CN1C(=O)S/C(=C/c2ccc(N3CCCCC3)o2)C1=O	8.3 µM
CCCCn1nc(-c2ccccc2)c2nc3ccccc3nc21	> 16 µM (inactive)
CN1CCN(c2ccc(/C=C3\C(=O)NC(=S)N(c4cccc(Br)c4)C3=O)o2)CC1	> 16 µM (inactive)
CC(C)/C=C1\CC/C(=C\c2ccc(N(C)C)cc2)C1=O	> 16 µM (inactive)
COc1ccc(/C(O)=C/c2nc3ccc(C(=O)NCCc4cccc(C)c4)cc3[nH]c2=O)cc1OC	> 16 µM (inactive)
Cc1[nH]c2ccccc2c1/C=N/Nc1ccc([N+](=O)[O-])cc1S(=O)(=O)Nc1ccc(Cl)cc1	> 16 µM (inactive)
CCCN1C=CC(=CC=C(C#N)C#N)C=C1	10.4 µM (inactive)
CN1/C(=C/C=C(C#N)C#N)C=Cc2ccccc21	> 16 µM (inactive)
CCOCCCNc1nc2c(C)cccn2c(=O)c1/C=C1\SC(=S)N(C(C)CC)C1=O (centres undefined)	4.03 µM
